One experiment has as its target BuChE (Homo sapiens, UniProt P06276). The experiment can be described thus: biochemical. Type of experiment: biochemical. The method, then: (§1) Each concentration was tested three times in parallel, and 96 empty plates were taken, and 20 µL of the test sample or positive drug (10% DMSO was added to the blank control), 40 µL of AChE or BuChE (0.2 U/mL) and 100 µL of DTNB (0.001 mol/L) were added in turn, mixed well and incubated in a constant temperature water bath at 37 °C for 15 min.

The next experiment deals with AChE (Homo sapiens, UniProt P22303). The experiment can be described thus: biochemical. Type of experiment: biochemical. As for the experimental part:
as §1

The target in the next experiment is MAO. The experiment can be described thus: MAO inhibitory activity (Holts method, rat liver mitochondrial enzyme). It is filed as biochemical. The method, then:
(§2) Male SD rats were sacrificed by decapitation, operated on ice, their livers were removed, and the liver surface was washed with precooled phosphate buffer. The liver was cut into pieces, and after washing (using PBS), 20 mL of 0.3 M sucrose buffer was added for homogenization. After fully homogenized, it was balanced by a tray balance. Low–temperature differential centrifugation was performed, and the obtained SD rat liver mitochondrial concentrate was the experimental monoamine oxidase stock solution, and was stored in a −80 °C refrigerator.
(§3) Added 25 µL of enzyme dilution solution and 25 µL of test derivatives (control group plus rasagiline, blank group plus 10% DMSO) to 96–well plate, incubated at 37 °C for 1 h, then 120 µL of substrate was added, 80 µL of chromogenic solution was added, incubated at 37 °C for 30 min, and its absorbance measured at 490 nm. In addition, in order to exclude the influence of protein, a protein control group was established, only the enzyme dilution was added, and the rest were replaced with PBS, and the absorbance value was detected at a wavelength of 490 nm. The inhibition rate of each concentration was substituted into the calculation software GraphPad Prism 8 to calculate the IC50 value.

A further experiment deals with T1, MAO–B (Rattus norvegicus, UniProt P19643).
T1 construct: the obtained SD rat liver mitochondrial concentrate was the experimental monoamine oxidase stock solution; from tissue; host or cells: male SD rat liver mitochondria
T1 sequence (P19643 1-520): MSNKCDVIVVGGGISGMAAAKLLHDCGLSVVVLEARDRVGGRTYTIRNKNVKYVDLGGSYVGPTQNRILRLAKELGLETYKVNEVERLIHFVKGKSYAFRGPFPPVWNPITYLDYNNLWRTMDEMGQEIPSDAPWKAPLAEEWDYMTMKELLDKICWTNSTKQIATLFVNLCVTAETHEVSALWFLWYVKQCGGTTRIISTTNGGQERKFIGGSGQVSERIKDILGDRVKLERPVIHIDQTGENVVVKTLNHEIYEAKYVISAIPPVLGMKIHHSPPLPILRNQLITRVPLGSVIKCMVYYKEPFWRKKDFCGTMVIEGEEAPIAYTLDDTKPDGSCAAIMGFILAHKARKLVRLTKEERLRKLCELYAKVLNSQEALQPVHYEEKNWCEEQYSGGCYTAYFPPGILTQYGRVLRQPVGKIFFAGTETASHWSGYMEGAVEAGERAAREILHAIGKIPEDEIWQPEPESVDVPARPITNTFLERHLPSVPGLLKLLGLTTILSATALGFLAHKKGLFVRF
Description: MAO–B inhibitory activity (enzyme pre-incubated with chlorgiline). It is filed as biochemical. As for the experimental part:
as §2, §3
The inhibition rate of each concentration was substituted into the calculation software GraphPad Prism 8 to calculate the IC50 value.

Another experiment concerns ICR male mice. Description: Forced swimming test (FST). It is filed as in vivo. As to conditions: i.p., 30 mg/kg; for DID (%) percentage decrease in immobility duration: vs control. As for the experimental part:
Pharmacological experiments of antidepressant activity used FST in mice, fluoxetine hydrochloride was used as a positive control, and the vehicle solvent PFG–400 was used as a blank control. The experiment used ICR male mice (20 ± 2 g). Six benzothiazole–quinoline derivatives were dissolved in polyethylene glycol–400, and 30 min after administration (i.p., 30 mg/kg), the mice were each placed in a glass cylinder, recording the time of immobility. Duration of immobility outcomes is expressed as mean ± SEM. The t-test was used to make comparisons between groups.

Chain of BuChE (P06276 29-602): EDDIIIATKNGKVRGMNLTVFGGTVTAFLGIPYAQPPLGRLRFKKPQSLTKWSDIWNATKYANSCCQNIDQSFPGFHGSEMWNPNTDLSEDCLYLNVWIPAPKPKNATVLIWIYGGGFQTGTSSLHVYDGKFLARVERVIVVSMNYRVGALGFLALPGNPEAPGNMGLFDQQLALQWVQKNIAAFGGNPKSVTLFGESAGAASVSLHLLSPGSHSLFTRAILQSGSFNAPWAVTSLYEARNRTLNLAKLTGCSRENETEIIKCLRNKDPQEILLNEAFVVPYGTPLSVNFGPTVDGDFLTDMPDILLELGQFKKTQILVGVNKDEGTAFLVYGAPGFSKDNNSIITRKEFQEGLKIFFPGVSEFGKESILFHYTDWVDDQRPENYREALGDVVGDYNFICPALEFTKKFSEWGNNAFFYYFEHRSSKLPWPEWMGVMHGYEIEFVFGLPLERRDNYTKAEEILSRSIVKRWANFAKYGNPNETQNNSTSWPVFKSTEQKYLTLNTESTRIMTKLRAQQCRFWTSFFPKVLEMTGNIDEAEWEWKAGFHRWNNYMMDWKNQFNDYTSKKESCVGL
Chain of AChE (P22303 32-614): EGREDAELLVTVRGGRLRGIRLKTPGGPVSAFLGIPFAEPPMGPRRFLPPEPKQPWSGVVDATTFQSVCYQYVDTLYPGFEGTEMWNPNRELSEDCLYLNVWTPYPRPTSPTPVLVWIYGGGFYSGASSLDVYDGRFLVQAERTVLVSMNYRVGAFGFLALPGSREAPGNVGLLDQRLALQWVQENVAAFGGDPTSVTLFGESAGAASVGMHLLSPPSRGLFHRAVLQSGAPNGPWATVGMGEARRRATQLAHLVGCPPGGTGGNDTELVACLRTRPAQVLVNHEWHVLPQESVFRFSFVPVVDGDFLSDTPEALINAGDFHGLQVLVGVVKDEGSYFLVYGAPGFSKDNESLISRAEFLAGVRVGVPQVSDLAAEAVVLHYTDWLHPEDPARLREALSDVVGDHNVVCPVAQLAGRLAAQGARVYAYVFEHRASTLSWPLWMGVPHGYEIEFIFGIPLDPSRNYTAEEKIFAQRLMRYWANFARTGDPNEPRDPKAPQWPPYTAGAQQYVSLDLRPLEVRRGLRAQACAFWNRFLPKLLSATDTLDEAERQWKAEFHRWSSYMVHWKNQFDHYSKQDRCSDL

One may read the IC50 as the concentration needed to halve the response being measured. The low end stands for greater potency in that assay, the high end for weaker potency in that assay. `COc1cccc2sc(NC(=O)CN3CCc4ccccc4[C@H]3c3ccccc3)nc12` [Compound 4j, (R)–N–(4–methoxybenzo[d]thiazol–2–yl)–2–(1–phenyl–3,4–dihydroisoquinolin–2(1H)–yl)acetamide]: on BuChE, the IC50 is more than 150 µM and the “Inhibition Rate (%) BuChE” value amounted to 51.52%. On AChE, the half-maximal inhibitory concentration (IC50) is more than 150 µM and the “Inhibition Rate (%) AChE” value amounted to 12.71%. Moreover, on MAO, the IC50 was more than 150 µM and the “Inhibition Rate of MAO (%)” value is given as 5.70%.

Turning to `COc1ccc2nc(NC(=O)CN3CCc4ccccc4[C@H]3c3ccccc3)sc2c1` [Compound 4l, (R)–N–(6–methoxybenzo[d]thiazol–2–yl)–2–(1–phenyl–3,4–dihydroisoquinolin–2(1H)–yl)acetamide], at BuChE, half-maximal inhibition (IC50) required 3.86 ± 0.82 µM and the “Inhibition Rate (%) BuChE” value came to 41.92%. For the same compound, at AChE, the IC50 is more than 150 µM and the “Inhibition Rate (%) AChE” value came out at 3.31%. On MAO, inhibition was half-maximal at 76.3 ± 2.94 µM (IC50) and the “Inhibition Rate of MAO (%)” value was found to be 11.34%.

`O=C(CN1CCc2ccccc2[C@H]1c1ccccc1)Nc1nc2cc(Br)ccc2s1` [Compound 4e, (R)–N–(5–bromobenzo[d]thiazol–2–yl)–2–(1–phenyl–3,4–dihydroisoquinolin–2(1H)–yl)acetamide]: at BuChE, the half-inhibitory concentration (IC50) was found to be 18.3 ± 2.68 µM and the “Inhibition Rate (%) BuChE” value amounted to 68.80%. In addition, at AChE, the IC50 is more than 150 µM and the “Inhibition Rate (%) AChE” value is 4.97%. On MAO, 128.1 ± 1.27 µM corresponded to half-maximal inhibition (IC50) and the “Inhibition Rate of MAO (%)” value came out at 9.29%.

Take `O=C(CN1CCc2ccccc2[C@H]1c1ccccc1)Nc1nc2c(Br)cc(Br)cc2s1` [Compound 4p, (R)–N–(4,6–dibromobenzo[d]thiazol–2–yl)–2–(1–phenyl–3,4–dihydroisoquinolin–2(1H)–yl)acetamide]: on BuChE, the 50% inhibitory concentration (IC50) amounted to 27.1 ± 1.73 µM and the “Inhibition Rate (%) BuChE” value came out at 43.84%. At AChE, the IC50 was more than 150 µM and the “Inhibition Rate (%) AChE” value is reported as 6.63%. For the same compound, on MAO, the IC50 is 59.3 ± 3.22 µM and the “Inhibition Rate of MAO (%)” value was determined as 19.80%.

For the compound `O=C(CN1CCc2ccccc2[C@H]1c1ccccc1)Nc1nc2ccc([N+](=O)[O-])cc2s1` [Compound 4n, (R)–N–(6–nitrobenzo[d]thiazol–2–yl)–2–(1–phenyl–3,4–dihydroisoquinolin–2(1H)–yl)acetamide], at BuChE, the 50% inhibitory concentration (IC50) is 12.3 ± 3.76 µM and the “Inhibition Rate (%) BuChE” value turned out to be 20.31%. For the same compound, at AChE, the concentration for half-maximal inhibition (IC50) is more than 150 µM and the “Inhibition Rate (%) AChE” value turned out to be 2.76%. Besides, on MAO, the concentration for half-maximal inhibition (IC50) was more than 150 µM and the “Inhibition Rate of MAO (%)” value came to 12.51%.

As to `O=C(CN1CCc2ccccc2[C@H]1c1ccccc1)Nc1nc2c(Cl)cc(Cl)cc2s1` [Compound 4o, (R)–N–(4,6–dichlorobenzo[d]thiazol–2–yl)–2–(1–phenyl–3,4–dihydroisoquinolin–2(1H)–yl)acetamide], on BuChE, the IC50 was determined as 21.8 ± 2.85 µM and the “Inhibition Rate (%) BuChE” value is given as 52.16%. Also, at AChE, the IC50 was more than 150 µM and the “Inhibition Rate (%) AChE” value amounted to 3.87%. For the same compound, on MAO, half-maximal inhibition (IC50) required 67.8 ± 1.26 µM and the “Inhibition Rate of MAO (%)” value was 10.19%.

Take `COc1ccc2sc(NC(=O)CN3CCc4ccccc4[C@H]3c3ccccc3)nc2c1` [Compound 4k, (R)–N–(5–methoxybenzo[d]thiazol–2–yl)–2–(1–phenyl–3,4–dihydroisoquinolin–2(1H)–yl)acetamide]: at BuChE, the IC50 stood at 10.2 ± 2.91 µM and the “Inhibition Rate (%) BuChE” value was determined as 57.92%. Also, on AChE, the IC50 is more than 150 µM and the “Inhibition Rate (%) AChE” value is on record as 3.31%. Further, on MAO, half-maximal inhibition (IC50) required 65.5 ± 3.51 µM and the “Inhibition Rate of MAO (%)” value stood at 17.75%.

Turning to `C#CCN(C)Cc1ccccc1` [Pargyline, reference compound], the “Inhibition Rate (%) MAO–B” value on MAO–B is given as 93.47%.

With `CNCCC(Oc1ccc(C(F)(F)F)cc1)c1ccccc1` (stereo not shown) [Fluoxetine, reference compound], the “Duration of Immobility” value in the experiment on ICR male mice (30 min after administration, mean ± SEM (n = 8)) was 31.7 ± 7.7 s. Further, the “DID (%) percentage decrease in immobility duration” value in the experiment on ICR male mice stood at 82.20%; with ICR male mice (listed as fluoxetine), 82.2%.

For the compound `Cc1ccc2sc(NC(=O)CN3CCc4ccccc4[C@H]3c3ccccc3)nc2c1` [Compound 4h, (R)–N–(5–methylbenzo[d]thiazol–2–yl)–2–(1–phenyl–3,4–dihydroisoquinolin–2(1H)–yl)acetamide], on BuChE, inhibition was half-maximal at 11.5 ± 3.22 µM (IC50) and the “Inhibition Rate (%) BuChE” value is listed as 37.44%. On AChE, the concentration for half-maximal inhibition (IC50) is more than 150 µM and the “Inhibition Rate (%) AChE” value is given as 3.31%. Besides, on MAO, the IC50 is 76.4 ± 2.58 µM and the “Inhibition Rate of MAO (%)” value is 16.72%.

Regarding `O=C(CN1CCc2ccccc2[C@H]1c1ccccc1)Nc1nc2c(Cl)cccc2s1` [Compound 4a, (R)–N–(4–chlorobenzo[d]thiazol–2–yl)–2–(1–phenyl–3,4–dihydroisoquinolin–2(1H)–yl)acetamide], at BuChE, the IC50 was more than 150 µM and the “Inhibition Rate (%) BuChE” value is reported as 38.08%. On AChE, the IC50 is more than 150 µM and the “Inhibition Rate (%) AChE” value is listed as 6.08%. Besides, at MAO, the 50% inhibitory concentration (IC50) is more than 150 µM and the “Inhibition Rate of MAO (%)” value turned out to be 14.93%.

Consider `O=C(CN1CCc2ccccc2[C@H]1c1ccccc1)Nc1nc2ccc(F)cc2s1` [Compound 4m, (R)–N–(6–fluorobenzo[d]thiazol–2–yl)–2–(1–phenyl–3,4–dihydroisoquinolin–2(1H)–yl)acetamide], for which, at BuChE, inhibition was half-maximal at 50.3 ± 1.68 µM (IC50) and the “Inhibition Rate (%) BuChE” value was determined as 22.33%. On AChE, the IC50 is more than 150 µM and the “Inhibition Rate (%) AChE” value is listed as 2.76%. Moreover, at MAO, the half-maximal inhibitory concentration (IC50) is more than 150 µM and the “Inhibition Rate of MAO (%)” value was determined as 9.76%.

For the origin of these results see PMC9782539, “Synthesis, Characterization and Biological Evaluation of Benzothiazole–Isoquinoline Derivative” (Molecules, 2022).
